According to US9187446B2, “Antibacterial agents: sidechainfluorinated myxopyronin derivatives” (RUTGERS, THE STATE UNIVERSITY OF NEW JERSEY, priority 2012, dated 2015):
Values after ≈ are worked out from the molar mass of the structure shown. Like-named read-outs stand apart in the source and are kept apart here.

What was measured:
[1] = tested on: Burkholderia pseudomallei strain Human/Blood/OH/US/1994; assay: microbe, parasite or virus in culture; assay type: cell-based
[2] = tested on: Escherichia coli D212f2tolC; conditions: MIC in presence of 10% mouse serum divided by MIC in absence of 10% mouse serum
[3] = biological target: E. coli RNA polymerase σ^70 holoenzyme (Escherichia coli, UniProt P0A8T7+P0A8V2); assay: Fluorescence-detected inhibition of Escherichia coli RNA polymerase; assay type: biochemical; conditions: read-out: IC50 E. coli RNAP
Chain of E. coli RNA polymerase σ^70 holoenzyme (P0A8V2 whole entry, the tested form may be a part): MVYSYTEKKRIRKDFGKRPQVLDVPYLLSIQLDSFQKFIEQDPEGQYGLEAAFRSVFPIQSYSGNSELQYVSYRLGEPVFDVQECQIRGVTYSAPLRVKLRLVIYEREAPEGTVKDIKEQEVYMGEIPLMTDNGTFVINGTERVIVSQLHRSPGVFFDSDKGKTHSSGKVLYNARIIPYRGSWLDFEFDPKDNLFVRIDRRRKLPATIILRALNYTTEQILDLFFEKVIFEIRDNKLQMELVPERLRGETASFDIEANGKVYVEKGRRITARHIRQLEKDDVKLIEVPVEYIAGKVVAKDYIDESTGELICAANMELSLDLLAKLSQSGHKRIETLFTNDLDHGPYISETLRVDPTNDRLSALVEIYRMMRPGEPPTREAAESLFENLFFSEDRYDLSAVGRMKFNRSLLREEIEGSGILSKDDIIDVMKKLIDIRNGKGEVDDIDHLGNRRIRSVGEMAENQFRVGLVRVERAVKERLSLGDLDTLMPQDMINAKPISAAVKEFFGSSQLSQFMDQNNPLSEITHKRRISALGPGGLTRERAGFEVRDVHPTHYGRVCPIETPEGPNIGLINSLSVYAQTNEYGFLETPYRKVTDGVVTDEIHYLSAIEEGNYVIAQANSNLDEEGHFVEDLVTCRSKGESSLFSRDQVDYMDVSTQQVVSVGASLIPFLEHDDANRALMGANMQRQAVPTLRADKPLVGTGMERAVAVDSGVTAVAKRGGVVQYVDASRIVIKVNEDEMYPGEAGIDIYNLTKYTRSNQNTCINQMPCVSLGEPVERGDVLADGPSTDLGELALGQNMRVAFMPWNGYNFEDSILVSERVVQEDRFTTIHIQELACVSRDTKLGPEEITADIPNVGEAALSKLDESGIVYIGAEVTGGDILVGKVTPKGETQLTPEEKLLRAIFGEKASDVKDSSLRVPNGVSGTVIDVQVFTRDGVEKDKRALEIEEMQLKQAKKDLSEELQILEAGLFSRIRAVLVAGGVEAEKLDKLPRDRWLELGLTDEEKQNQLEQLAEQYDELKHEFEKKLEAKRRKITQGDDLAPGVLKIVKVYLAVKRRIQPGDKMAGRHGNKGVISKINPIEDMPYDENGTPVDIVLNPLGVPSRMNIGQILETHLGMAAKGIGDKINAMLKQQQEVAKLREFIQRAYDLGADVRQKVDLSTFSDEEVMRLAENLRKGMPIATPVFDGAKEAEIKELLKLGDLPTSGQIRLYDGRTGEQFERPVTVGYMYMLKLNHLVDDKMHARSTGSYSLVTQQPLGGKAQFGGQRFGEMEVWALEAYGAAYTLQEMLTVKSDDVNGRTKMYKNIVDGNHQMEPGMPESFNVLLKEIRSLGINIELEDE
Chain of E. coli RNA polymerase σ^70 holoenzyme (P0A8T7 whole entry, the tested form may be a part): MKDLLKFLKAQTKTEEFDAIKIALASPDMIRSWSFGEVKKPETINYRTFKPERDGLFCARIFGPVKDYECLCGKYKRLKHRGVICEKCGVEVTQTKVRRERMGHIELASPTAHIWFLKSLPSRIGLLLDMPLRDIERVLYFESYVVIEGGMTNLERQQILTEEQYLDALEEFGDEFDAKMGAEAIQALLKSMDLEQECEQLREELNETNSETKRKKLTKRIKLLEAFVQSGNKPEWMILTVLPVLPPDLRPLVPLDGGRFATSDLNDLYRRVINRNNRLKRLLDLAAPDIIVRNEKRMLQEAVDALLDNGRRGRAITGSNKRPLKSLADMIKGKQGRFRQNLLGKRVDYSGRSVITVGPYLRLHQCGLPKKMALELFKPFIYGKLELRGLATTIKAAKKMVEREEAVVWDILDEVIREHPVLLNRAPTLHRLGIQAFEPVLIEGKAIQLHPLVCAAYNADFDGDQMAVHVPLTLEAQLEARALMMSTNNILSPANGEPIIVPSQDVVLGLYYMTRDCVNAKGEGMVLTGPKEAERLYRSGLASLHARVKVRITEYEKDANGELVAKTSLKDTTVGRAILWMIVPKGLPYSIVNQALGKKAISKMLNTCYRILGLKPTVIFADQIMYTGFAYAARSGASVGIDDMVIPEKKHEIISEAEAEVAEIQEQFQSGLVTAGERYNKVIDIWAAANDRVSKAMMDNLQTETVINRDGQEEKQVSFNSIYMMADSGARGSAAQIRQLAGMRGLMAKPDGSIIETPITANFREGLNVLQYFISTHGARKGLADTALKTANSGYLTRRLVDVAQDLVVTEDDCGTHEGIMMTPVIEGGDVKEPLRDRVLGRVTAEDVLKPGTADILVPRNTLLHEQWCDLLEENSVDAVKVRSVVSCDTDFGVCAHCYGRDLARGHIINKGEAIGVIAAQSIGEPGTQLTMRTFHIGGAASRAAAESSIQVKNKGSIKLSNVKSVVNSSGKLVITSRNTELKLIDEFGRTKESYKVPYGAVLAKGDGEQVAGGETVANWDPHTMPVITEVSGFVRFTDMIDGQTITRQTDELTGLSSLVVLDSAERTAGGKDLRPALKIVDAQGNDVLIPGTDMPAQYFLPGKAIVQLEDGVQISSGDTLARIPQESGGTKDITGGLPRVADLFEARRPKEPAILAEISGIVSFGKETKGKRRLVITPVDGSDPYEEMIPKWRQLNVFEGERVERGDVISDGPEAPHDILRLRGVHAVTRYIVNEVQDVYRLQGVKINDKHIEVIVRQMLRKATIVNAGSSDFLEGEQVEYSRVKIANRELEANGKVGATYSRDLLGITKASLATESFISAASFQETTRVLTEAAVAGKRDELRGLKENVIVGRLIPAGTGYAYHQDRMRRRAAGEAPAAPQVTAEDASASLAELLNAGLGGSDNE
Chain of E. coli RNA polymerase σ^70 holoenzyme (P0A7Z4 whole entry partner, the tested form may be a part): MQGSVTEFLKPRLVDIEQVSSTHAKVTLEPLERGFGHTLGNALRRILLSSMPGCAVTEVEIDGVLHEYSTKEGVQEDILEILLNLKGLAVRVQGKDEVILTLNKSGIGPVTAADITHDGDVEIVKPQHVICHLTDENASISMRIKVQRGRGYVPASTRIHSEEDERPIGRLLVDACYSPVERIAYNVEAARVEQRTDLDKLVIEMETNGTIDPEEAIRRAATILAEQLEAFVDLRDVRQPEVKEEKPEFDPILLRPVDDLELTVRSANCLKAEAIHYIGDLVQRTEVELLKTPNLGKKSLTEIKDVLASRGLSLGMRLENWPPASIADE
Chain of E. coli RNA polymerase σ^70 holoenzyme (P0A800 whole entry partner, the tested form may be a part): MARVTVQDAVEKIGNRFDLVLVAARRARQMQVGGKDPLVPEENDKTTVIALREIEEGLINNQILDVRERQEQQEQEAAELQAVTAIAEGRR
Chain of E. coli RNA polymerase σ^70 holoenzyme (P00579 whole entry partner, the tested form may be a part): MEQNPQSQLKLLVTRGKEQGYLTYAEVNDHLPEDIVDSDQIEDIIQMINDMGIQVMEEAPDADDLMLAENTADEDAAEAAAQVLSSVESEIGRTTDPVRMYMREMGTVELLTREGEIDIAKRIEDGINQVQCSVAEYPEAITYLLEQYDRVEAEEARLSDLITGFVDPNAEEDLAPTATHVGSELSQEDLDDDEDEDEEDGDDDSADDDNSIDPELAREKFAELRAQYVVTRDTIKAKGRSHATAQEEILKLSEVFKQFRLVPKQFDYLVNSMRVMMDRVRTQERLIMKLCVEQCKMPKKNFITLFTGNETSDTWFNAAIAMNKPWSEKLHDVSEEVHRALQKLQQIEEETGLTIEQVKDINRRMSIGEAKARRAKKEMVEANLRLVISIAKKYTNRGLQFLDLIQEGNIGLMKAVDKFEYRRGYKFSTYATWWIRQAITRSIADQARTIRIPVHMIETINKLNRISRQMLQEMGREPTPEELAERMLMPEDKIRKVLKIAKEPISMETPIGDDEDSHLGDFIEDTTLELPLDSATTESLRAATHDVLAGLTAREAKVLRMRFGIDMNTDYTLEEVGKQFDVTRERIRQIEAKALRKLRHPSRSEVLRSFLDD
Procedure: (§1) Fluorescence-detected RNA polymerase assays with E. coli RNA polymerase were performed by a modification of the procedure of Kuhlman et al., 2004 [Kuhlman, P., Duff, H. & Galant, A. (2004) A fluorescence-based assay for multisubunit DNA-dependent RNA polymerases. Anal. Biochem. 324, 183-190]. Reaction mixtures contained (20 μl): 0-100 nM test compound, 75 nM E. coli RNA polymerase σ^70 holoenzyme, 20 nM 384 bp DNA fragment containing the bacteriophage T4 N25 promoter, 100 μM ATP, 100 μM GTP, 100 μM UTP, 100 μM CTP, 50 mM Tris-HCl, pH 8.0, 100 mM KCl, 10 mM MgCl2, 1 mM DTT, 10 μg/ml bovine serum albumin, and 5.5% glycerol. Reaction components other than DNA and NTPs were pre-incubated for 10 min at 37° C. Reactions were carried out by addition of DNA and incubation for 5 min at 37° C., followed by addition of NTPs and incubation for 60 min at 37° C. DNA was removed by addition of 1 μl 5 mM CaCl2 and 2 U DNaseI (Ambion, Inc.), followed by incubation for 90 min at 37° C. RNA was quantified by addition of 100 μl RiboGreen RNA Quantitation Reagent (Invitrogen, Inc.; 1:500 dilution in Tris-HCl, pH 8.0, 1 mM EDTA), followed by incubation for 10 min at 25° C., followed by measurement of fluorescence intensity [excitation wavelength=485 nm and emission wavelength=535 nm; QuantaMaster QM1 spectrofluorometer (PTI, Inc.)]. IC50 is defined as the concentration of inhibitor resulting in 50% inhibition of RNA polymerase activity.

[4] = tested on: Francisella tularensis strain SCHU4; assay: microbe, parasite or virus in culture; assay type: cell-based
[5] = tested on: Burkholderia mallei strain CHN7; assay: microbe, parasite or virus in culture; assay type: cell-based
[6] = biological target: M. tuberculosis RNA polymerase core enzyme, M. tuberculosis σ^A (Mycobacterium tuberculosis, UniProt P9WGY7+P9WGY9); assay: Fluorescence-detected inhibition of Mycobacterium tuberculosis RNA polymerase; assay type: biochemical
Procedure: as §1
(§2) Fluorescence-detected RNA polymerase assays with M. tuberculosis RNA polymerase were performed as in Example 17.1, using reaction mixtures containing (20 μl): 0-100 nM test compound, 75 nM M. tuberculosis RNA polymerase core enzyme, 300 nM M. tuberculosis σ^A, 20 nM 384 bp DNA fragment containing the bacteriophage […] N25 promoter, 100 μM ATP, 100 GTP, 100 μM UTP, 100 μM CTP, 40 mM Tris-HCl, pH 8.0, 80 mM NaCl, 5 mM MgCl2, 2.5 mM DTT, and 12.7% glycerol. IC50 is defined as the concentration of inhibitor resulting in 50% inhibition of RNA polymerase activity.

[7] = not given; remark: listed apart in the source
[8] = tested on: Enterococcus faecalis ATCC strain 19433; assay: MIC, spiral gradient endpoint assay, E. faecalis; conditions: for MIC: Enterococcus faecalis, ATCC19433, 16 h, read-out: MIC E. faecalis 19433
[9] = tested on: Bacillus anthracis strain Vollum 1 b; assay: microbe, parasite or virus in culture; assay type: cell-based
[10] = biological target: S. aureus RNA polymerase core enzyme, S. aureus σ^A (Staphylococcus aureus, UniProt P47768+Q2G0N5); assay: Fluorescence-detected inhibition of Staphylococcus aureus RNA polymerase; assay type: biochemical
Procedure: as §1
as §2, with “assays with S. aureus RNA polymerase” for “assays with M. tuberculosis RNA polymerase”, “75 nM S. aureus RNA polymerase” for “75 nM M. tuberculosis RNA polymerase”, “300 nM S. aureus σ^A, 20” for “300 nM M. tuberculosis σ^A, 20”, “ATP, 100 μM GTP, 100” for “ATP, 100 GTP, 100”

[11] = tested on: Brucella melitensis strain 16M; assay: microbe, parasite or virus in culture; assay type: cell-based
[12] = Metabolic stability in the presence of human liver microsomes
physchem = conditions: pH 7.4
[13] = read-out: IC50 M. tuberculosis RNAP

Compound | serum shift [2] | IC50 [3] [nM] | IC50 [6, 13] [nM] | IC50 ([10]; read-out: IC50 S. aureus RNAP) [nM] | MIC [8] [µg/mL] | also measured
CCCC/C(C)=C/C=C(\C)C(=O)c1c(O)cc([C@H](C)CC/C=C/NC(=O)OC)oc1=O (racemic) [Myx B, (±)myxopyronin B, reference compound] | 16 | 10 | 100 | 70 |  | half-life human liver microsomes: 3 min; MIC B. pseudomallei Human/Blood/OH/US/1994 ([1]; broth microdilution): 30 µg/mL (≈ 69.5 µM); MIC F. tularensis SCHU4 ([4]; broth microdilution): 2 µg/mL (≈ 4.63 µM); MIC B. mallei CHN7 ([5]; broth microdilution): 6 µg/mL (≈ 13.9 µM); logD (pH 7.4) [7]: 1.8; MIC E. faecalis 19433 ([8]; 16 h at 37° C., Mueller-Hinton II agar): 20 µg/mL (≈ 46.3 µM); MIC B. anthracis Vollum1b ([9]; broth microdilution): 6 µg/mL (≈ 13.9 µM); MIC B. melitensis 16M ([11]; broth microdilution): 3 µg/mL (≈ 6.95 µM)
COC(=O)N/C=C/CCCc1cc(O)c(C(=O)/C(C)=C/C=C(\C)CCCC(F)(F)F)c(=O)o1 [compound 9, Methyl ((E)-5-(4-hydroxy-2-oxo-3-((2E,4E)-9,9,9-trifluoro-2,5-dimethylnona-2,4-dienoyl)-2H-pyran-6-yl)pent-1-en-1-yl)carbamate] | 8 | 5 | 60 |  | 10 (≈ 21.2 µM) | 
COC(=O)N/C=C/CCC(C)c1cc(O)c(C(=O)/C(C)=C/C=C(\C)CCCCC(F)(F)F)c(=O)o1 (stereo not drawn) [compound 3, Methyl ((E)-5-(4-hydroxy-2-oxo-3-((2E,4E)-10,10,10-trifluoro-2,5-dimethyldeca-2,4-dienoyl)-2H-pyran-6-yl)hex-1-en-1-yl)carbamate] | 16 | 10 |  |  | 10 (≈ 20 µM) | IC50 [6]: 200 nM; IC50 [10]: 40 nM
COC(=O)N/C=C/CCC(C)c1cc(O)c(C(=O)/C(C)=C/C=C(\C)CCC(F)(F)F)c(=O)o1 (stereo not drawn) [compound 5] | 8 | 4 | 100 | 100 | > 40 | 
COC(=O)N/C=C/CCC(C)c1cc(O)c(C(=O)/C(C)=C/C=C(\C)CCCC(F)(F)F)c(=O)o1 (stereo not drawn) [compound 1, Methyl ((E)-5-(4-hydroxy-2-oxo-3-((2E,4E)-9,9,9-trifluoro-2,5-dimethylnona-2,4-dienoyl)-2H-pyran-6-yl)hex-1-en-1-yl)carbamate] | 8 | 4 | 30 | 10 | 9 (≈ 18.5 µM) | MIC ([1]; Burkholderia pseudomallei, read-out: MIC B. pseudomallei Human/Blood/OH/US/1994): 50 µg/mL (≈ 103 µM); higher metabolic stability than (±)myxopyronin B ([12]; human liver microsomes, relative to Myx B): 4 to 5 times; half-life ([12]; human, liver microsomes): 14 min; MIC ([4]; Francisella tularensis, SCHU4, read-out: MIC F. tularensis SCHU4): 3 µg/mL (≈ 6.18 µM); MIC ([5]; Burkholderia mallei, CHN7, read-out: MIC B. mallei CHN7): 10 µg/mL (≈ 20.6 µM); logD (physchem): 1.4; MIC ([9]; Bacillus anthracis, VOLLUM1B, read-out: MIC B. anthracis Vollum1b): 6 µg/mL (≈ 12.4 µM); MIC ([11]; Brucella melitensis, 16M, read-out: MIC B. melitensis 16M): 6 µg/mL (≈ 12.4 µM)
COC(=O)N/C=C/CCCc1cc(O)c(C(=O)/C(C)=C/C=C(\C)CCC(F)(F)F)c(=O)o1 [compound 11, Methyl ((E)-5-(4-hydroxy-2-oxo-3-((2E,4E)-8,8,8-trifluoro-2,5-dimethylocta-2,4-dienoyl)-2H-pyran-6-yl)pent-1-en-1-yl)carbamate] | 4 | 20 |  |  | > 40 | 
